We go through 27 compounds from PubChem BioAssay AID198 (DTP/NCI, 2004).

In the assay the test system is B16 melanoma ip, C57BL/6 mice, median survival T/C. Description: NCI In Vivo Anticancer Drug Screen. Data for tumor model B16 Melanoma (intraperitoneal) in C57BL/6 mice. Conditions: endpoint: median survival time, higher = longer survival. As to the method: The antitumor activity of compounds was measured in mice bearing transplantable tumors. Survival or tumor size were measured and the results are expressed as the measurement made in the treated group (T) divided by the measurement made in the vehicle treated control group (C). The tumor model used in this assay is B16 Melanoma (intraperitoneal) in C57BL/6 mice

[1] abbreviates: dose: 25.0 mg/kg/injection, schedule: Q01DX009 (ip), vehicle: saline.
The mark [2] stands for this setting: dose: 50.0 mg/kg/injection, schedule: Q01DX009 (ip), vehicle: saline.
Setting [3] is: dose: 100.0 mg/kg/injection, schedule: Q01DX009 (ip), vehicle: saline.
The mark [4] stands for this setting: dose: 62.5 mg/kg/injection, schedule: Q01DX009 (ip), vehicle: saline.
[5] abbreviates: dose: 125.0 mg/kg/injection, schedule: Q01DX009 (ip), vehicle: saline.
Where [6] appears, read: dose: 250.0 mg/kg/injection, schedule: Q01DX009 (ip), vehicle: saline.
Where [7] appears, read: dose: 200.0 mg/kg/injection, schedule: Q01DX009 (ip), vehicle: saline.
[8] abbreviates: dose: 3.13 mg/kg/injection, schedule: Q01DX009 (ip), vehicle: saline.
Where [9] appears, read: dose: 10.0 mg/kg/injection, schedule: Q01DX009 (ip), vehicle: saline.
Setting [10] is: dose: 400.0 mg/kg/injection, schedule: Q01DX009 (ip), vehicle: saline.
Where [11] appears, read: dose: 100.0 mg/kg/injection, schedule: Q01DX009 (ip), vehicle: saline with Tween-80.
The mark [12] stands for this setting: dose: 200.0 mg/kg/injection, schedule: Q01DX009 (ip), vehicle: saline with Tween-80.
[13] abbreviates: dose: 8.0 mg/kg/injection, schedule: Q01DX009 (ip), vehicle: saline.
Where [14] appears, read: dose: 16.0 mg/kg/injection, schedule: Q01DX009 (ip), vehicle: saline.
Setting [15] is: dose: 75.0 mg/kg/injection, schedule: Q01DX009 (ip), vehicle: saline.
[16] abbreviates: dose: 150.0 mg/kg/injection, schedule: Q01DX009 (ip), vehicle: saline.
Setting [17] is: dose: 300.0 mg/kg/injection, schedule: Q01DX009 (ip), vehicle: saline.
Setting [18] is: dose: 6.25 mg/kg/injection, schedule: Q01DX009 (ip), vehicle: saline.
Setting [19] is: dose: 12.5 mg/kg/injection, schedule: Q01DX009 (ip), vehicle: saline.
Setting [20] is: dose: 31.3 mg/kg/injection, schedule: Q01DX009 (ip), vehicle: saline.
Where [21] appears, read: dose: 15.6 mg/kg/injection, schedule: Q01DX009 (ip), vehicle: saline.

Where “and” joins values, the source holds several entries; their conditions need not be identical. Equal values may be shown once. Toxic doses and inconclusive results are not listed.

Turning to `COc1cc(C[C@H]2c3cc(OC)c(OC)cc3CCN2C)c(Oc2cc3c(cc2OC)-c2c(OC)c(OC)cc4c2[C@H](C3)N(C)CC4)cc1OC`, the T/C runs as follows: under setting [1], 96 % of control; under setting [2], 96 % of control; under setting [3], 92 % of control.
Turning to `O=c1[nH]c(=O)c2n[nH]nc2[nH]1`, the T/C is 96 % of control under setting [4]; 100 % of control under setting [5]; 92 % of control under setting [6]; 92 % of control (dose: 500.0 mg/kg/injection, schedule: Q01DX009 (ip), vehicle: saline).
With `CC[C@H]1CN2CCc3cc(OC)c(OC)cc3[C@@H]2C[C@@H]1C[C@H]1NCCc2cc(OC)c(OC)cc21`, the T/C (dose: 1.0 mg/kg/injection, schedule: Q03DX005 (ip), vehicle: saline) was 106 % of control; the T/C (dose: 2.0 mg/kg/injection, schedule: Q03DX005 (ip), vehicle: saline) was 109 % of control; the T/C (dose: 16.0 mg/kg/injection, schedule: Q03DX005 (ip), vehicle: saline) was 87 % of control.
`Nc1nc2n[nH]nc2c(=O)[nH]1`: the T/C is 100 % of control under setting [1], 103 % of control under setting [2], 86 % of control under setting [3] and 90 % of control under setting [7].
In the case of `CCCC/C=C/CCCCCCCC(=O)OCCCCCCCCCCCCCCCC`, for the setting “dose: 400.0 mg/kg/injection, schedule: Q01DX001 (ip), vehicle: saline with Tween-80”, the T/C was 86 % of control.
As to `Nc1ccc(Cl)cc1N`, the T/C is, setting by setting: (dose: 12.5 mg/kg/injection, schedule: Q01DX009 (ip), vehicle: other) 106 % of control; (dose: 25.0 mg/kg/injection, schedule: Q01DX009 (ip), vehicle: other) 100 % of control; (dose: 50.0 mg/kg/injection, schedule: Q01DX009 (ip), vehicle: other) 100 % of control; (dose: 100.0 mg/kg/injection, schedule: Q01DX009 (ip), vehicle: other) 90 % of control.
Regarding `O=NN(CCCl)C(=O)Nc1ccc(CCO)cc1`, the T/C was 195 % of control (dose: 1.56 mg/kg/injection, schedule: Q01DX009 (ip), vehicle: saline) and 190 % of control under setting [8].
Take `CN[C@H]1CCc2cc(OC)c(OC)c(OC)c2-c2ccc(OC)c(=O)cc21`: the T/C by setting is: (dose: 1.25 mg/kg/injection, schedule: Q01DX009 (ip), vehicle: saline) 100 % of control; (dose: 1.3 mg/kg/injection, schedule: Q01DX009 (ip), vehicle: saline) 100 % of control; (dose: 2.5 mg/kg/injection, schedule: Q01DX009 (ip), vehicle: saline) 100 % of control and 103 % of control; (dose: 5.0 mg/kg/injection, schedule: Q01DX009 (ip), vehicle: saline) 93 % of control and 113 % of control; under setting [9], 93 % of control.
`[N-]=[N+]=CC(=O)NCC(=O)NN`: the T/C under setting [2] is 107 % of control, the T/C under setting [3] was 110 % of control, the T/C under setting [7] was 121 % of control and the T/C under setting [10] is 117 % of control.
Regarding `O=C(O)CCCCSc1ncnc2nc[nH]c12`, the T/C is 110 % of control under setting [11]; 103 % of control under setting [12]; 114 % of control (dose: 400.0 mg/kg/injection, schedule: Q01DX009 (ip), vehicle: saline with Tween-80).
Consider `CC[C@]1(O)C[C@H]2CN(CCc3c([nH]c4ccccc34)[C@@](C(=O)OC)(c3cc4c(cc3OC)N(C=O)[C@H]3[C@@](O)(C(=O)OC)[C@H](OC(C)=O)[C@]5(CC)C=CCN6CC[C@]43[C@@H]65)C2)C1`, for which the T/C was 182 % of control (dose: 0.06 mg/kg/injection, schedule: Q01DX009 (ip), vehicle: saline) and 189 % of control (dose: 0.13 mg/kg/injection, schedule: Q01DX009 (ip), vehicle: saline).
In the case of `COc1cc([C@@H]2c3cc4c(cc3[C@H](O)[C@H]3COC(=O)[C@H]23)OCO4)cc(OC)c1OC`, the T/C is 106 % of control (dose: 2.0 mg/kg/injection, schedule: Q01DX009 (ip), vehicle: saline); 120 % of control (dose: 4.0 mg/kg/injection, schedule: Q01DX009 (ip), vehicle: saline); 113 % of control under setting [13]; 96 % of control under setting [14].
Turning to `CC(Cc1ccc(O)c(O)c1)C(C)Cc1ccc(O)c(O)c1` (stereo not drawn), the T/C reads like this: under setting [2], 103 % of control; under setting [3], 106 % of control; under setting [7], 113 % of control; under setting [10], 113 % of control.
With `CN(C)CC(=O)c1ccc(O)c(O)c1`, the T/C is 112 % of control under setting [15]; 109 % of control under setting [16]; 115 % of control under setting [17]; 121 % of control (dose: 600.0 mg/kg/injection, schedule: Q01DX009 (ip), vehicle: saline).
For the compound `O=P1(N(CCCl)CCCl)NCCCO1` (stereo not drawn), the T/C is 93 % of control under setting [1] and 90 % of control under setting [3].
`O=c1[nH]c(=O)n(C2CC(O)C(CO)O2)cc1F` (stereo not drawn): the T/C runs as follows: under setting [9], 113 % of control; (dose: 20.0 mg/kg/injection, schedule: Q01DX009 (ip), vehicle: saline) 120 % of control; (dose: 40.0 mg/kg/injection, schedule: Q01DX009 (ip), vehicle: saline) 123 % of control; (dose: 80.0 mg/kg/injection, schedule: Q01DX009 (ip), vehicle: saline) 154 % of control; (dose: 160.0 mg/kg/injection, schedule: Q01DX009 (ip), vehicle: saline) 151 % of control.
As to `O=C(O)CCCc1ccc(N(CCCl)CCCl)cc1`, the T/C is 96 % of control and 103 % of control under setting [8]; 100 % of control and 114 % of control under setting [18]; 106 % of control and 112 % of control under setting [19]; 86 % of control under setting [1].
With `Nc1nc(CCl)nc(Nc2ccccc2)n1`, the T/C was 96 % of control under setting [11] and 100 % of control under setting [12].
Take `CN(C)c1nc(N(C)C)nc(N(C)C)n1`: the T/C by setting is: (dose: 37.5 mg/kg/injection, schedule: Q01DX009 (ip), vehicle: saline) 100 % of control; under setting [15], 103 % of control; under setting [16], 103 % of control; under setting [17], 103 % of control.
Regarding `OCC1OC(n2cnc3c(Cl)ncnc32)C(O)C1O` (stereo not drawn), the T/C runs as follows: under setting [20], 106 % of control and 107 % of control; under setting [4], 93 % of control and 100 % of control; under setting [5], 93 % of control and 100 % of control; under setting [6], 86 % of control and 100 % of control.
As for `O=c1[nH]cc(N(CCCl)CCCl)c(=O)[nH]1`, where the note is “dose: 1.5 mg/kg/injection, schedule: Q01DX009 (ip), vehicle: saline”, the T/C was 87 % of control and 106 % of control.
For `Nc1ncnc2c(C3OC(CO)C(O)C3O)[nH]nc12` (stereo not drawn), the T/C under setting [13] was 153 % of control, the T/C under setting [14] is 113 % of control and the T/C under setting [20] was 157 % of control.
As for `CC(C)=CCC/C(C)=C/CO`, the T/C by setting is: under setting [21], 93 % of control; under setting [20], 96 % of control; under setting [4], 86 % of control; under setting [5], 86 % of control.
Take `COC1=C(N)C(=O)c2nc(-c3nc(C(=O)O)c(C)c(-c4ccc(OC)c(OC)c4O)c3N)ccc2C1=O`: the T/C is 103 % of control (dose: 0.03 mg/kg/injection, schedule: Q01DX009 (ip), vehicle: saline); 93 % of control and 100 % of control and 118 % of control (dose: 0.05 mg/kg/injection, schedule: Q01DX009 (ip), vehicle: saline).
Turning to `C=CCN(CC=C)c1ncnc2[nH]ncc12`, the T/C under setting [21] was 105 % of control, the T/C under setting [20] was 100 % of control, the T/C under setting [4] is 102 % of control and the T/C under setting [5] is 102 % of control.
`O=CC(S)CO` (stereo not drawn): the T/C is 120 % of control under setting [1] and 120 % of control under setting [2].
For the compound `CS(=O)(=O)OCCCCOS(C)(=O)=O`, the T/C is, setting by setting: (dose: 3.12 mg/kg/injection, schedule: Q01DX009 (ip), vehicle: saline) 103 % of control; under setting [18], 96 % of control; under setting [19], 106 % of control; under setting [1], 103 % of control.
